Measurements published in the NIST ThermoML archive (doi:10.1021/je700632z).
Numbers after ± are expanded uncertainties.

Conditions: 101.33 kPa, Liquid, Capillary tube (Ostwald / Ubbelohde) method

## FC(F)(F)C(F)(F)C(F)(F)C(F)(F)C(F)(F)C(F)(F)C(F)(F)C(F)(F)Br [1-bromoperfluorooctane]
298.15 K
  kinematic viscosity: 1.065e-06 ± 1e-08 m2/s
303.15 K
  kinematic viscosity: 9.96e-07 ± 1e-08 m2/s
308.15 K
  kinematic viscosity: 9.05e-07 ± 1.1e-08 m2/s
313.15 K
  kinematic viscosity: 8.37e-07 ± 6e-09 m2/s
318.15 K
  kinematic viscosity: 7.51e-07 ± 1.1e-08 m2/s

## FC(F)(F)C(F)(F)C(F)(F)C(F)(F)C(F)(F)C(F)(F)C(F)(F)C(F)(F)C(F)(F)F [eicosafluorononane]
298.15 K
  kinematic viscosity: 1e-06 ± 1.2e-08 m2/s
303.15 K
  kinematic viscosity: 9.11e-07 ± 9e-09 m2/s
308.15 K
  kinematic viscosity: 8.33e-07 ± 8e-09 m2/s
313.15 K
  kinematic viscosity: 7.73e-07 ± 6e-09 m2/s
318.15 K
  kinematic viscosity: 7.14e-07 ± 7e-09 m2/s

## FC(F)(F)C(F)(F)C(F)(F)C(F)(F)C(F)(F)C(F)(F)C(F)(F)F [hexadecafluoroheptane]
298.15 K
  kinematic viscosity: 5.43e-07 ± 4e-09 m2/s
303.15 K
  kinematic viscosity: 5.12e-07 ± 9e-09 m2/s
308.15 K
  kinematic viscosity: 4.82e-07 ± 1.1e-08 m2/s
313.15 K
  kinematic viscosity: 4.48e-07 ± 7e-09 m2/s
318.15 K
  kinematic viscosity: 4.34e-07 ± 7e-09 m2/s

## Fc1c(F)c(F)c(F)c(F)c1F [hexafluorobenzene]
298.15 K
  kinematic viscosity: 5.81e-07 ± 9e-09 m2/s
303.15 K
  kinematic viscosity: 5.35e-07 ± 1.1e-08 m2/s
308.15 K
  kinematic viscosity: 4.91e-07 ± 4e-09 m2/s
313.15 K
  kinematic viscosity: 4.5e-07 ± 7e-09 m2/s
318.15 K
  kinematic viscosity: 4.23e-07 ± 9e-09 m2/s

## FC(F)(F)C(F)(F)C(F)(F)C(F)(F)C(F)(F)C(F)(F)C(F)(F)C(F)(F)F [octadecafluorooctane]
298.15 K
  kinematic viscosity: 7.11e-07 ± 7.4e-09 m2/s
303.15 K
  kinematic viscosity: 6.56e-07 ± 6.9e-09 m2/s
308.15 K
  kinematic viscosity: 6.08e-07 ± 6.4e-09 m2/s
313.15 K
  kinematic viscosity: 5.65e-07 ± 6e-09 m2/s
318.15 K
  kinematic viscosity: 5.27e-07 ± 5.6e-09 m2/s

## Fc1c(F)c(F)c(C(F)(F)F)c(F)c1F [octafluorotoluene]
298.15 K
  kinematic viscosity: 5.88e-07 ± 4e-09 m2/s
303.15 K
  kinematic viscosity: 5.51e-07 ± 5e-09 m2/s
308.15 K
  kinematic viscosity: 5.16e-07 ± 4e-09 m2/s
313.15 K
  kinematic viscosity: 4.84e-07 ± 4e-09 m2/s
318.15 K
  kinematic viscosity: 4.57e-07 ± 4e-09 m2/s

## FC(F)(F)C1(F)C(F)(F)C(F)(F)C(F)(F)C(F)(F)C1(F)F [perfluoro(methylcyclohexane)]
298.15 K
  kinematic viscosity: 9.31e-07 ± 8e-09 m2/s
303.15 K
  kinematic viscosity: 8.43e-07 ± 9e-09 m2/s
308.15 K
  kinematic viscosity: 7.72e-07 ± 8e-09 m2/s
313.15 K
  kinematic viscosity: 7.22e-07 ± 9e-09 m2/s
318.15 K
  kinematic viscosity: 6.84e-07 ± 9e-09 m2/s

## FC1(F)C(F)(F)C(F)(F)C2(F)C(F)(F)C(F)(F)C(F)(F)C(F)(F)C2(F)C1(F)F (stereo not given) [perfluorodecalin]
298.15 K
  kinematic viscosity: 2.803e-06 ± 1.6e-08 m2/s
303.15 K
  kinematic viscosity: 2.448e-06 ± 1.4e-08 m2/s
308.15 K
  kinematic viscosity: 2.159e-06 ± 1.4e-08 m2/s
313.15 K
  kinematic viscosity: 1.917e-06 ± 1.1e-08 m2/s
318.15 K
  kinematic viscosity: 1.709e-06 ± 1e-08 m2/s

## FC(F)(F)C(F)(F)C(F)(F)C(F)(F)C(F)(F)C(F)(F)F [perfluorohexane]
298.15 K
  kinematic viscosity: 4.17e-07 ± 5e-09 m2/s
303.15 K
  kinematic viscosity: 3.97e-07 ± 9e-09 m2/s
308.15 K
  kinematic viscosity: 3.72e-07 ± 4e-09 m2/s
313.15 K
  kinematic viscosity: 3.57e-07 ± 5e-09 m2/s
318.15 K
  kinematic viscosity: 3.43e-07 ± 4e-09 m2/s
